Consider one compound from patent US20230390315A1, “COMPOSITIONS AND METHODS FOR TREATING ISCHEMIC CONDITIONS” (The Regents of the University of California, priority 2020, published 2023).

For the assay, the system named is protein glycosylation in BCECs. The assay can be described thus: N-glycan, monosaccharide, sialic acid and O-glycan analysis of BCECs. It counts as cell-based, bovine. The procedure: As soon as BCECs reached about 80% confluency, they were washed twice with phosphate buffered saline (PBS, Sigma) and harvested by scraping. The cells were pelleted by centrifugation at 300 g for 3 mins and washed once with cold PBS. Cells were homogenized and total protein was measured. All subsequent analysis was based on known protein amount.
N-linked glycans were removed from glycoprotein samples using PNGase-F kit (New England BioLabs, P0705S). Briefly, 300 μg of protein sample was reconstituted in 180 μl UltraPure water. 20 μl of 10× denaturing buffer was added and boiled using 100° C. water bath for 14 mins. Samples were cooled down to room temperature and centrifuged at 2700 g for 1 min. Subsequently, 50 μl 10×NP-40 was added and samples were kept at room temperature for 30 mins with vortexing at 5 min interval, followed by adding 25 μL of 10×reaction buffer and mixing thoroughly. 5 μl PNGaseF (2500 U) was then added to the samples and mixed gently. Samples were incubated at 37° C. for 16 hrs. Released N-glycans were purified using solid phase extraction method. Briefly, N-glycans were purified by passing the reaction mixture sequentially over pre-conditioned Sep-Pak C18 1 cc cartridge (Waters) and HyperSep PGC ([…]) cartridge (25 mg, 1 ml Thermo Scientific). The cartridge was washed with 4 ml of water and the PGC alone was washed with additional 1 ml of water. N-glycans bound to PGC were eluted using 30% acetonitrile containing 0.1% TFA in water. Finally, purified N-glycans were lyophilized and labeled with 2-AB. Briefly, samples were dissolved in 10 μl solution of 0.44 M 2-AB (2-Amino benzamide) in 35% acetic acid in DMSO containing 1M sodium cyanoborohydride. The samples were incubated at 65° C. for 2.5 hrs. The 2-AB labeled glycans were purified using GlycoClean S cartridge (GLYKO) following their glycan clean-up protocol. Excess reagent was removed from the samples using Glycoclean S-cartridge (Prozyme) and labelled glycans were dried using SpeedVac and stored at −20° C. Profiling of 2-AB labeled glycans was obtained using Dionex CarboPac PA1 (4×250 mm) anion exchange column along with a guard column (4×50 mm) at flow rate of 1 ml/min. Glycans were separated in 100 mM sodium hydroxide with a sodium acetate gradient of 0-250 mM in 0-75 minutes. The data was collected using the Dionex ICS-3000 HPLC system with Ultimate 3000 fluorescence detector (Dionex) set at λex 330 nm at tem 420 nm with sensitivity 7. The data was processed using Chromeleon software (Thermo Scientific).
Monosaccharide composition analysis was done using HPAEC-PAD (Thermo-Dionex ICS3000) and nmole amount of each monosaccharide present in 25 μg of protein was calculated. Samples were hydrolyzed using 2 N trifluoroacetic acid (TFA) at 100° C. for 4 hrs. Followed by removal of acid using dry nitrogen flush. To ensure complete removal of acid, samples were co-evaporated twice with 100 μl of 50% isopropyl alcohol (IPA). Finally, the samples were dissolved in Milli-Q water and injected on HPAEC-PAD. Monosaccharide profile was done using Dionex CarboPac™ PA1 column (250 mm×4 mm; with 50 mm×4 mm guard column). […] All neutral and amino sugars were identified and quantified by comparing with authentic monosaccharide standard mixture consisting of L-fucose, D-galactosamine, D-glucosamine, D-galactose, D-glucose and D-mannose.
Mild acid hydrolysis was used to release sialic acid. […] Known amount of standard Neu5Ac was used to quantify amount of sialic acid in samples. […]

On to `N[C@H](C=O)[C@@H](O)[C@H](O)[C@H](O)CO` [ManN, 2-Amino-2-deoxy-D-mannose], for which the “fucose (8 hours), mannose (12 hours), galactose (24 hours) and Neu5Ac (8 and 24 hours) content vs untreated control” value is on record as “significant decrease”; the “incorporation of ManN in N-glycans” value is “No incorporation of ManN was detected”. For the same compound, for the setting “40 uM ManN”, the “Man-5 and Man-7 content” value is “significant early phase accumulation”; the “Man-6, Man-8 and Man-9 in total oligomannose N-glycan content vs untreated control” value is reported as “significant time-dependent reduction”. Moreover, the O-glycosylation entry (40 uM ManN, MALDI-Tof) is on record as “overall decrease in O-glycosylation”.
